Measurements: patent US9546164B2 (GENENTECH, INC., priority 2013, dated 2017)
Counter-ions that a name gives are not always drawn.

biological target: hNav1.7 (Homo sapiens (Human), UniProt Q15858); test: Tritiated sulfonamide competitive binding to membranes from cells expressing hNav1.7 and the β1 subunit; settings: not given;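 note: Filter-bound radioactivity counted by liquid scintillation, nonspecific binding defined with excess unlabelled ligand, IC50 fitted to percent inhibition of specific binding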
Sequence (Q15858 other isoform, or with tags, fused parts or gaps): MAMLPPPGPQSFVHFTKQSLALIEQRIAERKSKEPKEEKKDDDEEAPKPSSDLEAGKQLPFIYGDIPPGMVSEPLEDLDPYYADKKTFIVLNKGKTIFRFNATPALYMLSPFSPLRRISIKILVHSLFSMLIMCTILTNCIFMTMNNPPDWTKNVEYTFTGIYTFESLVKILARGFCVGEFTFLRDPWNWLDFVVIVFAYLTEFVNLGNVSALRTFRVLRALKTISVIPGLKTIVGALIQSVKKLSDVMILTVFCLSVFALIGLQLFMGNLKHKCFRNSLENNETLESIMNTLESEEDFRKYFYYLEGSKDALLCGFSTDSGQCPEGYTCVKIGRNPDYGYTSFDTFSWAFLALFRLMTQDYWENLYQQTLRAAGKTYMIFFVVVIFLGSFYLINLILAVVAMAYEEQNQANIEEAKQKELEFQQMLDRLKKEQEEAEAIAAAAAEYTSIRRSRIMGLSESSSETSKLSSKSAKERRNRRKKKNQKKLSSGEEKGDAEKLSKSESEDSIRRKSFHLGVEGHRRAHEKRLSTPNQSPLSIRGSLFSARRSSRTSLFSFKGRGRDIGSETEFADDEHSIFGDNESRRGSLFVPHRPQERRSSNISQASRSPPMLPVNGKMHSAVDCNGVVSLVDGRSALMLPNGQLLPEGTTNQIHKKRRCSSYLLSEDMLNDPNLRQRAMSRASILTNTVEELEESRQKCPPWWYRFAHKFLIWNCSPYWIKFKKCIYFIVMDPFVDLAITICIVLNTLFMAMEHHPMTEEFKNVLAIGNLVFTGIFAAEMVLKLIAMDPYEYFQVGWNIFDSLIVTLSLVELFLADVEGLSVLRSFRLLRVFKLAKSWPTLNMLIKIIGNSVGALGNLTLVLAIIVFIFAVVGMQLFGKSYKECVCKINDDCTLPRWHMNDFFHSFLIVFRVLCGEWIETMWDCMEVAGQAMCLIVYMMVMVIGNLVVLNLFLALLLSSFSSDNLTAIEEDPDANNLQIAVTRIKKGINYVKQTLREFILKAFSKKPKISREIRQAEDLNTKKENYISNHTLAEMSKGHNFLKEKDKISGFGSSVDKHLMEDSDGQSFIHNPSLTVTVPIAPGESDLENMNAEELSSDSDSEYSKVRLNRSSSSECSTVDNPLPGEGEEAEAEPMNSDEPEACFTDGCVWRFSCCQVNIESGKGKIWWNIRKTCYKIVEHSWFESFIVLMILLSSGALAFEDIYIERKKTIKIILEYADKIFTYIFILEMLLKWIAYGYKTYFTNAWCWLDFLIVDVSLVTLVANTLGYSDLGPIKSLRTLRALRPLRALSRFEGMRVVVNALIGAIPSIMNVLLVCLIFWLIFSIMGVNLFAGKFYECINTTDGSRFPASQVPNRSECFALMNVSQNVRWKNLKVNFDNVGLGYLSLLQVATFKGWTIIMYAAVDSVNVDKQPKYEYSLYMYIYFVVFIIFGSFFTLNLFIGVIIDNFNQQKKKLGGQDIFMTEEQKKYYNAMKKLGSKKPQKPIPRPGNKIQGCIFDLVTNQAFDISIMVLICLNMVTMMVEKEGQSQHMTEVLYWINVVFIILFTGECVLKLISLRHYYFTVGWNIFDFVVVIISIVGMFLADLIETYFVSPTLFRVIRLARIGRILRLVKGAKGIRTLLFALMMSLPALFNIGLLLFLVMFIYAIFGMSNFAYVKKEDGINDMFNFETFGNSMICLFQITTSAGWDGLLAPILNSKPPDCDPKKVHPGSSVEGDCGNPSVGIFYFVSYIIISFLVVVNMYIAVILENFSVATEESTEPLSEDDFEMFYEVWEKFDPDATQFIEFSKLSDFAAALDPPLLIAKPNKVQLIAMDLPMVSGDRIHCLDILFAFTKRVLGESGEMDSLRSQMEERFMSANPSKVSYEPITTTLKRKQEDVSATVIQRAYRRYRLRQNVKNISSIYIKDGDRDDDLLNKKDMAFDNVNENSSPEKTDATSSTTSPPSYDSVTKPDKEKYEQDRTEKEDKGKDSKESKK
Sequence (Q07699 19-218 partner): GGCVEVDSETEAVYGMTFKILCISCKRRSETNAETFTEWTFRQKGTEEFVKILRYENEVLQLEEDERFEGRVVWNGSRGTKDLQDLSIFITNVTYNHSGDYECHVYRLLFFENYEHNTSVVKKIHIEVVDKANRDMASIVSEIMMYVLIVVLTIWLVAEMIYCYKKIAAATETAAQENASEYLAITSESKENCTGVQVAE

Row | SMILES | IC50 [nM]
1 | O=C(NS(=O)(=O)N1CCC1)c1cc(C2CC2)c(O[C@@H]2CCCN(c3cc(Cl)cc(Cl)c3)C2)cc1F [Example 43, (R)—N-(azetidin-1-ylsulfonyl)-5-cyclopropyl-4-((1-(3,5-dichlorophenyl)piperidin-3-yl)oxy)-2-fluorobenzamide] | 4.9
2 | O=C(NS(=O)(=O)C1CC1)c1cc(C2CC2)c(O[C@@H]2CCCN(Cc3ccc(Cl)cc3Cl)C2)cc1F [Example 31, (R)-5-cyclopropyl-N-(cyclopropylsulfonyl)-4-((1-(2,4-dichlorobenzyl)piperidin-3-yl)oxy)-2-fluorobenzamide] | 2.6
3 | CS(=O)(=O)NC(=O)c1cc(C2CC2)c(O[C@@H]2CCCN(Cc3ccnnc3)C2)cc1F [Example 13, (R)-5-cyclopropyl-2-fluoro-N-(methylsulfonyl)-4-((1-(pyridazin-4-ylmethyl)piperidin-3-yl)oxy)benzamide] | 1490
4 | C[C@H](c1cc(Cl)cc(Cl)c1)N1CCC[C@@H](Oc2cc(F)c(C(=O)NS(C)(=O)=O)cc2C2CC2)C1 (single isomer, unassigned) [Example 51] | 2.1
5 | CS(=O)(=O)NC(=O)c1cc(C2CC2)c(CN2CCC(Oc3ccc(Cl)cc3Cl)CC2)cc1F [Example 546, 5-cyclopropyl-4-((4-(2,4-dichlorophenoxy)piperidin-1-yl)methyl)-2-fluoro-N-(methylsulfonyl)benzamide, trifluoroacetic acid salt] | 11.9

same assay, conditions: read-out: Ligand Binding Assay; 100 pM [3H]compound, membranes with hNav1.7 and β1 subunit, 18 h, room temperature

Row | SMILES | IC50 [nM]
6 | COC(C)(C)[C@H](c1cc(Cl)cc(Cl)c1)N1CCC(COc2cc(F)c(C(=O)NS(C)(=O)=O)cc2C2CC2)CC1 (single isomer, unassigned) [Example 206] | 1.8
7 | C[C@@H](c1cc(Cl)cc(Cl)c1)N1CCC(COc2cc(F)c(C(=O)NS(C)(=O)=O)cc2Cl)CC1 [Example 402, (S)-5-chloro-4-((1-(1-(3,5-dichlorophenyl)ethyl)piperidin-4-yl)methoxy)-2-fluoro-N-(methylsulfonyl)benzamide, trifluoroacetic acid salt] | 22.4
8 | CS(=O)(=O)NC(=O)c1cc(C2CC2)c(OCC2CN([C@@H](c3ccccc3)c3cccc(C#N)c3)C2)cc1F [Example 108, (S)-4-((1-((3-Cyanophenyl)(phenyl)methyl)azetidin-3-yl)methoxy)-5-cyclopropyl-2-fluoro-N-(methylsulfonyl)benzamide] | 94
9 | CS(=O)(=O)NC(=O)c1cc(C2CC2)c(CN2[C@@H]3CC[C@H]2C[C@@H](Oc2cc(Cl)cc(OC(F)(F)F)c2)C3)cc1F [Example 560, 4-(((1R,3r,5S)-3-(3-chloro-5-(trifluoromethoxy)phenoxy)-8-azabicyclo[3.2.1]octan-8-yl)methyl)-5-cyclopropyl-2-fluoro-N-(methylsulfonyl)benzamide, trifluoroacetic acid salt] | 2.8
10 | CC1(COc2cc(F)c(C(=O)NS(C)(=O)=O)cc2C2CC2)CCN(C2(c3cc(Cl)cc(Cl)c3)COC2)CC1 [Example 178, 5-Cyclopropyl-4-((1-(3-(3,5-dichlorophenyl)oxetan-3-yl)-4-methylpiperidin-4-yl)methoxy)-2-fluoro-N-(methylsulfonyl)benzamide] | 7.6
11 | CS(=O)(=O)NC(=O)c1cc(C2CC2)c(OCC2CCN(S(=O)(=O)c3ccc(Br)c(F)c3)CC2)cc1F [Example 368, 4-((1-((4-bromo-3-fluorophenyl)sulfonyl)piperidin-4-yl)methoxy)-5-cyclopropyl-2-fluoro-N-(methylsulfonyl)benzamide] | 25.1
12 | C[C@@H](c1cc(F)cc(C(F)(F)F)c1)N1CCC(C)(COc2cc(F)c(C(=O)NS(C)(=O)=O)cc2C2CC2)CC1 (single isomer, unassigned) [Example 171] | 5
13 | CS(=O)(=O)NC(=O)c1cc(C2CC2)c(O[C@@H]2CCCN(CC3CCC4(CCC4)CC3)C2)cc1F [Example 444, (R)-5-cyclopropyl-2-fluoro-N-(methylsulfonyl)-4-((11-(spiro[3.5]nonan-7-ylmethyl)piperidin-3-yl)oxy)benzamide, trifluoroacetic acid salt] | 4.5
14 | O=C(NS(=O)(=O)N1CCC1)c1cc(Cl)c(OCC2CCN(Cc3cc(Cl)cc(OC(F)(F)F)c3)CC2)cc1F [Example 408, N-(azetidin-1-ylfulfonyl)-5-chloro-4-((1-(3-chloro-5-(trifluoromethoxy)benzyl)piperidin-4-yl)methoxy)-2-fluorobenzamide, trifluoroacetic acid suit] | 22.7
15 | CS(=O)(=O)NC(=O)c1cc(C2CC2)c(OCC2CN(Cc3cc(Cl)cc(Cl)c3)C2)cc1F [Example 132, 5-Cyclopropyl-4-((1-(3,5-dichlorobenzyl)azetidin-3-yl)methoxy)-2-fluoro-N-(methylsulfonyl)benzamide] | 14
16 | C[C@H](c1ccccc1)N1CC(COc2cc(F)c(C(=O)NS(C)(=O)=O)cc2C2CC2)C1 [Example 85, (R)-5-Cyclopropyl-2-fluoro-N-(methylsulfonyl)-4-((1-(1-phenylethyl)azetidin-3-yl)methoxy)benzamide] | 1860
17 | CS(=O)(=O)NC(=O)c1cc(C2CC2)c(OCC2CN([C@H](c3ccccc3)c3cccc(C#N)c3)C2)cc1F [Example 109, (R)-4-((1-((3-Cyanophenyl)(phenyl)methyl)azetidin-3-yl)methoxy)-5-cyclopropyl-2-fluoro-N-(methylsulfonyl)benzamide] | 53.6
18 | CS(=O)(=O)NC(=O)c1cc(C2CC2)c(OCC2CN(Cc3cccc(F)c3)C2)cc1F [Example 73, 5-cyclopropyl-2-fluoro-4-((1-(3-fluorobenzyl)azetidin-3-yl)methoxy)-N-(methylsulfonyl)benzamide] | 1300
19 | C[C@@H](c1cc(Cl)cc(Cl)c1)N1CCC(F)(COc2cc(F)c(C(=O)NS(=O)(=O)C3CC3)cc2C2CC2)CC1 [Example 350] | 4.5
20 | CS(=O)(=O)NC(=O)c1cc(C2CC2)c(OCC2CCN(S(=O)(=O)c3cc(Cl)c(Br)cc3F)CC2)cc1F [Example 366, 4-((1-((4-bromo-5-chloro-2-fluorophenyl)sulfonyl)piperidin-4-yl)methoxy)-5-cyclopropyl-2-fluoro-N-(methylsulfonyl)benzamide] | 9.1
21 | CC(c1cc(Cl)cc(Cl)c1)N1CCN(Cc2cc(F)c(C(=O)NS(C)(=O)=O)cc2C2CC2)CC1 (stereo not drawn) [Example 540] | 7.8
22 | CS(=O)(=O)NC(=O)c1cc(C2CC2)c(OCC2CN([C@@H](c3ccccc3)c3ccc(OC(F)(F)F)cc3)C2)cc1F [Example 112, (S)-5-Cyclopropyl-2-fluoro-N-(methylsulfonyl)-4-((1-(phenyl(4-(trifluoromethoxy)phenyl)methyl)azetidin-3-yl)methoxy)benzamide] | 3.35
23 | C[C@H](c1cccc(F)c1)N1CCC(C)(COc2cc(F)c(C(=O)NS(C)(=O)=O)cc2C2CC2)CC1 (single isomer, unassigned) [Example 250] | 43
24 | CS(=O)(=O)NC(=O)c1cc(C2CC2)c(OCC2CCN(CC3(C(F)(F)F)CCCC3)CC2)cc1F [Example 329, 5-cyclopropyl-2-fluoro-N-(methylsulfonyl)-4-((1-((1-(trifluoromethyl)cyclopentyl)methyl)piperidin-4-yl)methoxy)benzamide trifluoroacetic acid salt] | 3.3
25 | CS(=O)(=O)NC(=O)c1cc(C2CC2)c(OCC2CCN(C(c3ccc(F)cc3)c3ccc(F)cc3)CC2)cc1F [Example 418, 4-((1-(bis(4-fluorophenyl)methyl)piperidin-4-yl)methoxy)-5-cyclopropyl-2-fluoro-N-(methylsulfonyl)benzamide, trifluoroacetic acid salt] | 3.2
26 | N#Cc1cc(C(=O)NS(=O)(=O)C2CC2)c(F)cc1OCC1CCN(Cc2cc(Cl)cc(OC(F)(F)F)c2)CC1 [Example 409, 4-((1-(3-chloro-5-(trifluoromethoxy)benzyl)piperidin-4-yl)methoxy)-5-cyano-N-(cyclopropylsulfonyl)-2-fluorobenzamide, trifluoroacetic acid salt] | 54
27 | O=C(NS(=O)(=O)C1CC1)c1cc(C2CC2)c(OCC2CCN(C(c3ccc(F)cc3)c3ccc(F)cc3)CC2)cc1F [Example 363, 4-((1-(bis(4-fluorophenyl)methyl)piperidin-4-yl)methoxy)-5-cyclopropyl-N-(cyclopropylsulfonyl)-2-fluorobenzamide, trifluoroacetic acid salt] | 5.8
28 | CC1(COc2cc(F)c(C(=O)NS(C)(=O)=O)cc2C2CC2)CN(C(c2ccccc2)c2cc(Cl)cc(Cl)c2)C1 (stereo not drawn) [Example 420, 5-cyclopropyl-4-((1-((3,5-dichlorophenyl)(phenyl)methyl)-3-methylazetidin-3-yl)methoxy)-2-fluoro-N-(methylsulfonyl)benzamide, trifluoroacetic acid salt] | 2.4
29 | CS(=O)(=O)NC(=O)c1cc(C2CC2)c(OCC2CCN(C(=O)c3ccccc3C(F)(F)F)CC2)cc1F [Example 255] | 1100
30 | CCS(=O)(=O)NC(=O)c1cc(C2CC2)c(OCC2CCN(C(C)c3cc(Cl)cc(Cl)c3)CC2)cc1F (stereo not drawn) [Example 101, 5-Cyclopropyl-4-((1-(1-(3,5-dichlorophenyl)ethyl)piperidin-4-yl)methoxy)-N-(ethylsulfonyl)-2-fluorobenzamide] | 3.76
31 | C[C@H](c1cc(Cl)cc(Cl)c1F)N1CCC(COc2cc(F)c(C(=O)NS(C)(=O)=O)cc2C2CC2)CC1 (single isomer, unassigned) [Example 237] | 2.9
32 | CS(=O)(=O)NC(=O)c1cc(C2CC2)c(OCC2CCN(Cc3cc(C(F)(F)F)cc(Cl)c3F)CC2)cc1F [Example 581, 4-((1-(3-chloro-2-fluoro-5-(trifluoromethyl)benzyl)piperidin-4-yl)methoxy)-5-cyclopropyl-2-fluoro-N-(methylsulfonyl)benzamide] | 3.8
33 | O=C(NS(=O)(=O)C1CC1)c1cc(C2CC2)c(CN2CCC(Oc3cc(Cl)cc(Cl)c3)CC2)cc1F [Example 57, 5-cyclopropyl-N-(cyclopropylsulfonyl)-4-((4-(3,5-dichlorophenoxy)piperidin-1-yl)methyl)-2-fluorobenzamide, trifluoroacetic acid salt] | 3.8
